# From ChEMBL document CHEMBL1201862, “PubChem BioAssay data set” (2004)
#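 Results reflect a 48-hour exposure of cells in 96-well plates to compound at five concentrations. Abbreviation: GI50, concentration required for 50% inhibition of growth.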 Activity calls are given as the source filed them. Cut-off read from the data, not from the text of the source: active = GI50 up to about 1.1 µM and inactive = higher.
# Legend:
# Assay in all cases: inhibition of tumour cell growth, NCI panel, 48 h
# SN12C = tested on: SN12C
# HT-29 = tested on: HT-29
# SNB-75 = tested on: SNB-75
# TK-10 = tested on: TK-10
# NCI-H460 = tested on: NCI-H460
# NCI-H522 = tested on: NCI-H522
# NCI-H23 = tested on: NCI-H23
# HL-60 = tested on: HL-60
# SK-OV-3 = tested on: SK-OV-3
# OVCAR-5 = tested on: OVCAR-5
# SK-MEL-5 = tested on: SK-MEL-5
# SF-295 = tested on: SF-295
# NCI-H226 = tested on: NCI-H226
# SK-MEL-2 = tested on: SK-MEL-2
# HOP-62 = tested on: HOP-62
# Malme-3M = tested on: Malme-3M
# CCRF-CEM = tested on: CCRF-CEM
# A498 = tested on: A498
SMILES,GI50 (SN12C),GI50 (HT-29),GI50 (SNB-75),GI50 (TK-10),GI50 (NCI-H460),GI50 (NCI-H522),GI50 (NCI-H23),GI50 (HL-60),GI50 (SK-OV-3),GI50 (OVCAR-5),GI50 (SK-MEL-5),GI50 (SF-295),GI50 (NCI-H226),GI50 (SK-MEL-2),GI50 (HOP-62),GI50 (Malme-3M),GI50 (CCRF-CEM),GI50 (A498)
CC(=O)Nc1ccc(C(=O)NN2C(=O)C(Cl)C2c2ccc([N+](=O)[O-])cc2)cc1 (centres undefined),> 100 µM (inactive),> 100 µM (inactive),> 100 µM (inactive),> 100 µM (inactive),> 100 µM (inactive),> 100 µM (inactive),> 100 µM (inactive),> 100 µM (inactive),> 100 µM (inactive),> 100 µM (inactive),> 100 µM (inactive),> 100 µM (inactive),> 100 µM (inactive),> 100 µM (inactive),> 100 µM (inactive),> 100 µM (inactive),> 100 µM (inactive),> 100 µM (inactive)
CCOC(=O)NC(=O)c1cn(CCN2CCNCC2)c(=O)[nH]c1=O,> 100 µM (inactive),> 100 µM (inactive),–,> 100 µM (inactive),> 100 µM (inactive),> 100 µM (inactive),> 100 µM (inactive),> 100 µM (inactive),> 100 µM (inactive),> 100 µM (inactive),> 100 µM (inactive),> 100 µM (inactive),> 100 µM (inactive),> 100 µM (inactive),> 100 µM (inactive),–,> 100 µM (inactive),–
N=c1oc2c(O)c(O)ccc2cc1C(N)=O,> 100 µM (inactive),> 100 µM (inactive),30.2 µM (inactive),> 100 µM (inactive),> 100 µM (inactive),58.6 µM (inactive),> 100 µM (inactive),> 10 µM (inactive),> 100 µM (inactive),> 100 µM (inactive),–,33.6 µM (inactive),> 100 µM (inactive),48.2 µM (inactive),> 100 µM (inactive),84.3 µM (inactive),21.6 µM (inactive),> 100 µM (inactive)
COc1ccc(/C(Cl)=C(\C=O)c2ccc(Br)cc2)cc1OC,> 100 µM (inactive),> 100 µM (inactive),2.81 µM (inactive),> 92.3 µM (inactive),> 68.9 µM (inactive),51.8 µM (inactive),64.7 µM (inactive),17 µM (inactive),> 100 µM (inactive),> 100 µM (inactive),> 100 µM (inactive),19.8 µM (inactive),19.5 µM (inactive),16.5 µM (inactive),34.8 µM (inactive),47.8 µM (inactive),–,88.9 µM (inactive)
OC1CC(O)O[C@H](c2ccccc2)C1 (some centres undefined),> 100 µM (inactive),> 100 µM (inactive),> 100 µM (inactive),> 100 µM (inactive),> 100 µM (inactive),–,> 100 µM (inactive),> 100 µM (inactive),–,> 100 µM (inactive),> 100 µM (inactive),> 100 µM (inactive),> 100 µM (inactive),–,> 100 µM (inactive),> 100 µM (inactive),> 100 µM (inactive),> 100 µM (inactive)
CC(C)(C)C#COC(=O)c1ccccc1,> 100 µM (inactive),> 100 µM (inactive),–,–,> 100 µM (inactive),> 100 µM (inactive),> 100 µM (inactive),> 100 µM (inactive),> 100 µM (inactive),> 100 µM (inactive),> 100 µM (inactive),> 100 µM (inactive),> 100 µM (inactive),> 100 µM (inactive),> 100 µM (inactive),> 100 µM (inactive),> 100 µM (inactive),> 100 µM (inactive)
O=S1(=O)CS(=O)(=O)OCCCCCO1,> 100 µM (inactive),> 100 µM (inactive),> 100 µM (inactive),> 100 µM (inactive),> 100 µM (inactive),> 100 µM (inactive),> 100 µM (inactive),–,> 100 µM (inactive),> 100 µM (inactive),–,–,> 100 µM (inactive),> 100 µM (inactive),–,> 100 µM (inactive),> 100 µM (inactive),> 100 µM (inactive)
C[C@H]1[C@H](C)CC[C@]2(C(=O)O)CCC3(COC(=O)/C=C/c4ccc(O)cc4)C(=CCC4[C@@]5(C)CC[C@H](O)C(C)(C)C5CC[C@]43C)[C@H]12 (some centres undefined),5.68 µM (inactive),6.12 µM (inactive),10.2 µM (inactive),10.5 µM (inactive),3.09 µM (inactive),3.78 µM (inactive),–,7.96 µM (inactive),1.63 µM (inactive),14.8 µM (inactive),11 µM (inactive),3.72 µM (inactive),7.91 µM (inactive),19.1 µM (inactive),7.82 µM (inactive),19.3 µM (inactive),3.84 µM (inactive),4.06 µM (inactive)
CCOC(=O)C1C(=O)C(=O)N2CCc3c([nH]c4ccccc34)C12 (centres undefined),> 100 µM (inactive),> 100 µM (inactive),–,> 100 µM (inactive),–,> 100 µM (inactive),> 100 µM (inactive),> 100 µM (inactive),> 100 µM (inactive),> 100 µM (inactive),> 100 µM (inactive),> 100 µM (inactive),–,> 100 µM (inactive),> 100 µM (inactive),> 100 µM (inactive),> 100 µM (inactive),> 100 µM (inactive)
Cc1ccc(/C=C(\C#N)c2ccccc2)cc1,> 100 µM (inactive),> 100 µM (inactive),> 100 µM (inactive),> 100 µM (inactive),> 100 µM (inactive),> 100 µM (inactive),> 100 µM (inactive),–,> 100 µM (inactive),> 100 µM (inactive),> 100 µM (inactive),> 100 µM (inactive),> 100 µM (inactive),> 100 µM (inactive),> 100 µM (inactive),–,> 100 µM (inactive),> 100 µM (inactive)
Cc1cn(C2CC(CCCO)C(CO)O2)c(=O)[nH]c1=O (centres undefined),> 100 µM (inactive),> 100 µM (inactive),–,> 100 µM (inactive),> 100 µM (inactive),> 100 µM (inactive),> 100 µM (inactive),> 100 µM (inactive),> 100 µM (inactive),> 100 µM (inactive),> 100 µM (inactive),> 100 µM (inactive),–,> 100 µM (inactive),> 100 µM (inactive),> 100 µM (inactive),–,> 100 µM (inactive)
C[N+]1(C)C/C(=C\c2ccc(O)cc2)C(=O)/C(=C/c2ccc(O)cc2)C1,18.5 µM (inactive),> 100 µM (inactive),> 100 µM (inactive),18 µM (inactive),29 µM (inactive),> 100 µM (inactive),–,19.5 µM (inactive),> 100 µM (inactive),> 100 µM (inactive),> 100 µM (inactive),63.2 µM (inactive),–,–,> 100 µM (inactive),> 100 µM (inactive),23.7 µM (inactive),85.1 µM (inactive)
CN1C(=O)c2cccc3c([N+](=O)[O-])ccc(c23)C1=O,12.4 µM (inactive),–,12.3 µM (inactive),3.86 µM (inactive),2.56 µM (inactive),1.36 µM (inactive),11.9 µM (inactive),–,14.7 µM (inactive),3.5 µM (inactive),18.3 µM (inactive),14.5 µM (inactive),1.56 µM (inactive),10.8 µM (inactive),12.1 µM (inactive),16.2 µM (inactive),7.24 µM (inactive),2.65 µM (inactive)
Cc1c2cc[n+](C)cc2c(C)c2c1[nH]c1ccc(Oc3ccccc3)cc12,0.381 µM (active),0.764 µM (active),0.44 µM (active),–,–,–,0.515 µM (active),–,1.39 µM (inactive),3.31 µM (inactive),0.794 µM (active),0.311 µM (active),0.492 µM (active),1.1 µM (active),0.578 µM (active),1.76 µM (inactive),1.19 µM (inactive),–
Cc1ccc(S(=O)(=O)ON/N=C2/C3OC3[C@@H]3CCCC[C@H]23)cc1 (some centres undefined),> 100 µM (inactive),> 100 µM (inactive),> 100 µM (inactive),> 100 µM (inactive),> 100 µM (inactive),> 100 µM (inactive),> 100 µM (inactive),> 100 µM (inactive),–,–,–,1.19 µM (inactive),> 100 µM (inactive),> 100 µM (inactive),> 100 µM (inactive),> 100 µM (inactive),> 100 µM (inactive),–
Cc1c(C(=O)c2ccccc2C(=O)O)c2ccccc2n1C,–,> 100 µM (inactive),> 100 µM (inactive),> 100 µM (inactive),> 100 µM (inactive),–,> 100 µM (inactive),> 100 µM (inactive),> 100 µM (inactive),> 100 µM (inactive),> 100 µM (inactive),> 100 µM (inactive),> 100 µM (inactive),> 100 µM (inactive),> 100 µM (inactive),> 100 µM (inactive),> 100 µM (inactive),> 100 µM (inactive)
CC(C)C(CCOS(=O)(=O)O)CCC(C)[C@H]1[C@@H](O)C(O)C2[C@]3(O)C[C@@H](O)C4(O)C[C@@H](O)CC[C@]4(C)C3CC[C@@]21C (some centres undefined),> 100 µM (inactive),> 100 µM (inactive),–,> 100 µM (inactive),> 100 µM (inactive),> 100 µM (inactive),> 100 µM (inactive),> 100 µM (inactive),> 100 µM (inactive),–,> 100 µM (inactive),> 100 µM (inactive),> 100 µM (inactive),> 100 µM (inactive),> 100 µM (inactive),> 100 µM (inactive),> 100 µM (inactive),–
